Where two headings read alike, the source gives them in different places.
Legend:
AR230 cells = assay: Phenotypic screening / cytotoxicity in CML cell line AR230; type: cell-based; conditions: read-out: IC50 AR230
AR230^R cells = assay: Phenotypic screening / cytotoxicity in TKI-resistant CML cell line AR230^R; type: cell-based; conditions: for IC50: read-out: IC50 AR230^R; for Fold Difference: Table 3, AR230 vs AR230^R

## CC(C)(C)c1ccc(CN(C(=O)CN(C2CC2)S(=O)(=O)c2ccc(F)cc2)c2ccc(C(=O)O)cc2)cc1 [AES1-094, 4-(N-(4-(tert-butyl)benzyl)-2-((N-cyclopropyl-4-fluorophenyl)sulfonamido)acetamido)benzoic acid]
AR230 cells; Table 4
  IC50: > 32 µM
AR230^R cells; Table 4
  IC50: 10.6 µM

## O=C(O)c1ccc(N(Cc2ccc(C3CCCC3)cc2)C(=O)CN(C2CC2)S(=O)(=O)c2c(F)c(F)cc(F)c2F)cc1 [AM1-020, 4-(N-(4-Cyclopentylbenzyl)-2-((N-cyclopropyl-2,3,5,6-tetrafluorophenyl)sulfonamido)acetamido)benzoic acid]
AR230 cells; Table 4
  IC50: > 32 µM
AR230^R cells; Table 4
  IC50: 13.1 µM

## Cc1c(F)c(F)c(S(=O)(=O)N(CC(=O)N(Cc2ccc(C3CCCC3)cc2)c2ccc(C(=O)O)cc2)C2CC2)c(F)c1F [AM1-030, 4-(N-(4-Cyclopentylbenzyl)-2-((N-cyclopropyl-2,3,5,6-tetrafluoro-4-methylphenyl)sulfonamido)acetamido)benzoic acid]
AR230 cells; Table 4
  IC50: > 32 µM
AR230^R cells; Table 4
  IC50: 18.6 µM

## O=C(O)c1ccc(N(Cc2ccc(C3CCCC3)cc2)C(=O)CN(C2CC2)S(=O)(=O)c2c(F)c(F)c(C(F)(F)F)c(F)c2F)cc1 [AM1-066, 4-(N-(4-Cyclopentylbenzyl)-2-((N-cyclopropyl-2,3,5,6-tetrafluoro-4-(trifluoromethyl)phenyl)sulfonamido)acetamido)benzoic acid]
AR230 cells; Table 4
  IC50: 20.4 µM
AR230^R cells; Table 4
  IC50: 21.6 µM

## O=C(O)c1ccc(N(Cc2ccc(C3CCCC3)cc2)C(=O)CN(C2CC2)S(=O)(=O)c2c(F)c(F)c(Br)c(F)c2F)cc1 [AM1-077, 4-(N-(4-Cyclopentylbenzyl)-2-((N-cyclopropyl-2,3,5,6-tetrafluoro-4-bromophenyl)sulfonamido)acetamido)benzoic acid]
AR230 cells; Table 4
  IC50: 25.1 µM
AR230^R cells; Table 4
  IC50: 20.3 µM

## O=C(O)c1ccc(N(Cc2ccc(C3CCCC3)cc2)C(=O)CN(C2CC2)S(=O)(=O)c2c(F)c(F)c(Cl)c(F)c2F)cc1 [AM1-112, 4-(N-(4-Cyclopentylbenzyl)-2-((N-cyclopropyl-2,3,5,6-tetrafluoro-4-chlorophenyl)sulfonamido)acetamido)benzoic acid]
AR230 cells; Table 4
  IC50: > 32 µM
AR230^R cells; Table 4
  IC50: 30.7 µM

## O=C(O)c1ccc(N(Cc2ccc(C3CCCC3)cc2)C(=O)CN(C2CC2)S(=O)(=O)c2ccc(F)nc2)cc1 [AM1-116, 4-(N-(4-Cyclopentylbenzyl)-2-((N-cyclopropyl-6-fluoropyridine)-3-sulfonamido)acetamido)benzoic acid]
AR230 cells; Table 4
  IC50: > 32 µM
AR230^R cells; Table 4
  IC50: > 32 µM

## O=C(O)c1ccc(N(Cc2ccc(C3CCCC3)cc2)C(=O)CN(C2CC2)S(=O)(=O)c2ccc(F)cn2)cc1 [AM1-117, 4-(N-(4-Cyclopentylbenzyl)-2-((N-cyclopropyl-5-fluoropyridine)-2-sulfonamido)acetamido)benzoic acid]
AR230 cells; Table 4
  IC50: > 32 µM
AR230^R cells; Table 4
  IC50: > 32 µM

## O=C(O)c1ccc(N(Cc2ccc(C3CCCCC3)cc2)C(=O)CN(C2CC2)S(=O)(=O)c2c(F)c(F)c(F)c(F)c2F)cc1 [DR-3-036]
AR230 cells; Table 2
  IC50: 4.3 µM
AR230^R cells; Table 2
  IC50: 2.6 µM

## O=C(O)c1ccc(N(Cc2ccc(C3CCCC3)cc2)C(=O)CN(C2CC2)S(=O)(=O)c2c(F)c(F)c(F)c(F)c2F)cc1 [DR-3-093, 4-(N-(4-Cyclopentylbenzyl)-2-((N-cyclopropyl-2,3,4,5,6-pentafluorophenyl)sulfonamido)acetamido)benzoic acid]
AR230 cells; Table 3
  IC50: 3.3 µM
AR230^R cells
  Fold Difference: 2.75
AR230^R cells; Table 3
  IC50: 1.2 µM

## O=C(O)c1ccc(N(Cc2ccc(C3CCCC3)cc2)C(=O)CNS(=O)(=O)c2c(F)c(F)c(F)c(F)c2F)cc1 [DR-3-111, 4-(N-(4-Cyclopentylbenzyl)-2-((perfluorophenyl)sulfonamido)acetamido)benzoic acid]
AR230 cells
  IC50: 11.4 µM
AR230^R cells; AR230^R cells
  fold reduction in activity vs SH-4-54: ~5 fold
AR230^R cells
  IC50: 15.6 µM

## CC1(C)CCC(c2ccc(CN(C(=O)CN(C3CC3)S(=O)(=O)c3c(F)c(F)c(F)c(F)c3F)c3ccc(C(=O)O)cc3)cc2)CC1 [DR-3-119, 4-(2-((N-Cyclopropyl-2,3,4,5,6-pentafluorophenyl)sulfonamido)-N-(4-(4,4-dimethylcyclohexyl)benzyl)acetamido)benzoic acid]
AR230 cells; Table 3
  IC50: 5.8 µM
AR230^R cells
  Fold Difference: 1.81
AR230^R cells; Table 3
  IC50: 3.2 µM

## CC(C)(C)c1ccc(CN(C(=O)CN(C2CC2)S(=O)(=O)c2c(F)c(F)c(F)c(F)c2F)c2ccc(C(=O)O)cc2)cc1 [DR-3-162, 4-(N-(4-(tert-butyl)benzyl)-2-((N-cyclopropyl-2,3,4,5,6-pentafluorophenyl)sulfonamido)acetamido)benzoic acid]
AR230 cells; Table 3
  IC50: 3.2 µM
AR230^R cells
  fold selectivity for AR230^R over AR230 cells: 4 fold
  Fold Difference: 4
AR230^R cells; AR230^R cells
  fold more potent: 3 fold
AR230^R cells; Table 3
  IC50: 0.8 µM

## O=C(O)c1ccc(N(Cc2ccc(C3CCCCCC3)cc2)C(=O)CN(C2CC2)S(=O)(=O)c2c(F)c(F)c(F)c(F)c2F)cc1 [DR-3-165, 4-(N-(4-Cycloheptylbenzyl)-2-((N-cyclopropyl-2,3,4,5,6-pentafluorophenyl)sulfonamido)acetamido)benzoic acid]
AR230 cells; Table 3
  IC50: 2.7 µM
AR230^R cells
  Fold Difference: 2.45
AR230^R cells; Table 3
  IC50: 1.1 µM

## O=C(O)c1ccc(N(Cc2ccc(C(F)(F)F)cc2)C(=O)CN(C2CC2)S(=O)(=O)c2c(F)c(F)c(F)c(F)c2F)cc1 [DR-3-186, 4-(2-(N-cyclopropyl-2,3,4,5,6-pentafluorophenylsulfonamido)-N-(4-(trifluoromethyl)benzyl)acetamido)benzoic acid]
AR230 cells
  IC50: 1.4 µM
AR230^R cells
  fold selectivity for AR230^R over AR230 cells: < 2 fold
  Fold Difference: 1.94
  IC50: 0.72 µM

## O=C(O)c1ccc(N(Cc2ccc(Cl)cc2)C(=O)CN(C2CC2)S(=O)(=O)c2c(F)c(F)c(F)c(F)c2F)cc1 [DR-4-003, 4-(N-(4-Chlorobenzyl)-2-((N-cyclopropyl-2,3,4,5,6-pentafluorophenyl)sulfonamido)acetamido)benzoic acid]
AR230 cells; Table 3
  IC50: 4.1 µM
AR230^R cells
  Fold Difference: 2.41
AR230^R cells; Table 3
  IC50: 1.7 µM

## O=C(O)c1ccc(N(Cc2ccc(C3CCC3)cc2)C(=O)CN(C2CC2)S(=O)(=O)c2c(F)c(F)c(F)c(F)c2F)cc1 [DR-4-020, 4-(N-(4-Cyclobutylbenzyl)-2-((N-cyclopropyl-2,3,4,5,6-pentafluorophenyl)sulfonamido)acetamido)benzoic acid]
AR230 cells; Table 3
  IC50: 8.6 µM
AR230^R cells
  Fold Difference: 2.05
AR230^R cells; Table 3
  IC50: 4.2 µM

## O=C(O)c1ccc(N(Cc2ccc(C3CCOCC3)cc2)C(=O)CN(C2CC2)S(=O)(=O)c2c(F)c(F)c(F)c(F)c2F)cc1 [DR-4-042]
AR230 cells; Table 3
  IC50: 4.7 µM
AR230^R cells
  Fold Difference: 1.12
AR230^R cells; Table 3
  IC50: 4.2 µM

## CC(C)N(CC(=O)N(Cc1ccc(C2CCCCC2)cc1)c1ccc(C(=O)O)cc1)S(=O)(=O)c1c(F)c(F)c(F)c(F)c1F [PSL-3-40, 4-(N-(4-cyclohexylbenzyl)-2-(2,3,4,5,6-pentafluoro-N-isopropylphenylsulfonamido)acetamido)benzoic acid]
AR230 cells
  IC50: 8.7 µM
AR230^R cells
  IC50: 14.2 µM

## O=C(O)c1ccc(N(Cc2ccc(N3CCOCC3)cc2)C(=O)CN(C2CC2)S(=O)(=O)c2c(F)c(F)c(F)c(F)c2F)cc1 [PSL-3-089]
AR230 cells; Table 3
  IC50: 7.4 µM
AR230^R cells
  Fold Difference: 1.42
AR230^R cells; Table 3
  IC50: 5.2 µM

## O=C(O)c1ccc(N(Cc2ccccc2)C(=O)CN(C2CC2)S(=O)(=O)c2c(F)c(F)c(F)c(F)c2F)cc1 [PSL-3-115]
AR230 cells; Table 3
  IC50: 5.2 µM
AR230^R cells
  Fold Difference: 2.26
AR230^R cells; Table 3
  IC50: 2.3 µM

## O=C(O)c1ccc(N(Cc2ccc(F)cc2)C(=O)CN(C2CC2)S(=O)(=O)c2c(F)c(F)c(F)c(F)c2F)cc1 [PSL-3-122]
AR230 cells; Table 3
  IC50: 6.1 µM
AR230^R cells
  Fold Difference: 2.03
AR230^R cells; Table 3
  IC50: 3 µM

## O=C(O)c1ccc(N(Cc2ccc(C3CC3)cc2)C(=O)CN(C2CC2)S(=O)(=O)c2c(F)c(F)c(F)c(F)c2F)cc1 [PSL-3-132]
AR230 cells; Table 3
  IC50: 4.2 µM
AR230^R cells
  Fold Difference: 1.75
AR230^R cells; Table 3
  IC50: 2.4 µM

## O=C(O)c1ccc(N(Cc2ccc(C3CCCC3)cc2)C(=O)CN(C2CC2)S(=O)(=O)c2cccnc2)cc1 [RG1-066, 4-(N-(4-Cyclopentylbenzyl)-2-(N-cyclopropylpyridine-3-sulfonamido)acetamido)benzoic acid]
AR230 cells
  IC50: > 32 µM
AR230^R cells
  IC50: > 32 µM

## O=C(O)c1ccc(N(Cc2ccc(C3CCCC3)cc2)C(=O)CN(C2CC2)S(=O)(=O)c2ccccn2)cc1 [RG1-085, 4-(N-(4-Cyclopentylbenzyl)-2-(N-cyclopropylpyridine-2-sulfonamido)acetamido)benzoic acid]
AR230 cells
  IC50: > 32 µM
AR230^R cells
  IC50: > 32 µM

Source: article PMC4963206 (ChemMedChem, 2016)
